Results on one substance are retold here after patent publication US20230212571A1, “COMPOSITIONS AND METHODS FOR DELIVERING POLYNUCLEOTIDES” (NeOnc Technologies, Inc., priority 2020, published 2023).

The data set relates to BEC. Put plainly: ELISA of control BEC supernatants. The format is cell-based, human. An excerpt:
Human surgical specimens were obtained following written informed consent from patients in accordance with Declaration of Helsinki guidelines and the Institutional Review Board (HS-04B053), at Keck School of Medicine, USC. AVM-BECs were isolated from brain tissues of patients who underwent microsurgical AVM resection. Control BECs were isolated from the structurally normal […] of patients who underwent temporal lobectomy for intractable epilepsy. Endothelial cell (EC) isolation and culture were described^5,9. (Stapleton C J, Armstrong D L, Zidovetzki R, Liu C Y, Giannotta S L, Hofman F M. Thrombospondin-1 modulates the angiogenic phenotype of human cerebral arteriovenous malformation endothelial cells. Neurosurgery. 2011; 68(5):1342-1353) (Ferreira R, Santos T, Amar A, et al. Argonaute-2 promotes miR-18a entry in human brain endothelial cells. J Am Heart Assoc. 2014; 3(3):e000968) ECs were only used between passages 3-5. Experiments were performed under shear flow conditions (12 dyn/cm^2) to reproduce arterial flow^6. (Ferreira R, Santos T, Amar A, et al. MicroRNA-18a improves human cerebral arteriovenous malformation endothelial cell function. Stroke. 2014; 45(1):293-297). For hypoxic experiments, cells were cultured in a Galaxy 48R (Eppendorf) incubator at 3% O2. MicroRNAs were co-administered with Ago-2 to increase the cellular uptake of miR-18a^9 (Ferreira R, Santos T, Amar A, et al. Argonaute-2 promotes miR-18a entry in human brain endothelial cells. J Am Heart Assoc. 2014; 3(3):e000968) (FIG. 9). Methods regarding cell treatments and transfections were included in Data.
Small interfering RNA transfection was performed as previously described^5. Briefly, ECs were transfected with small interfering RNA (siRNA) against ID1 or PAI-1 (Thermo Fisher Scientific), or small interfering control (Santa Cruz Biotechnology) constructs using Lipofectamine RNAiMax (Thermo Fisher Scientific) per the manufacturer's instructions. Knockdown of ID1 or PAI-1 was confirmed by quantitative real-time polymerase chain reaction as described^6 (FIG. 19). The sequences of the forward and reverse primers for ID1 and PAI-1 were included in Table 2.
Plasmid constructs pcDNA3-ALK2^WT (Addgene #80870) and pcDNA3-ALK2^Q207D (Addgene #80871) were a gift from Aristidis Moustakas^7. (Meyer B, Schaller C, Frenkel C, Ebeling B, Schramm J. Distributions of local oxygen saturation and its response to changes of mean arterial blood pressure in the cerebral cortex adjacent to arteriovenous malformations. Stroke. 1999; 30(12):2623-2630) 10^4 AVM-BEC were seeded 24 h before transfection. The plasmid vector containing the 3′ untranslated region (3′UTR) of human BMP4, pRP [Exp]-Puro-CMV>Luciferase:{hBMP4_3′UTR}, was constructed and packaged by VectorBuilder. The vector ID is VB200205-1078zdv, which can be used to retrieve detailed information about the vector on vectorbuilder.com. Transient transfections were performed with Lipofectamine RNAiMax (Thermo Fisher Scientific) according to the manufacturer's instructions. After 4 h, medium was replaced by fresh medium containing microRNA.
MiR-18a (hsa-miR-18a-5p, 40 nM, Dharmacon) or a scramble microRNA (40 nM, Dharmacon) in nuclease-free water was added with argonaute 2 (Ago-2, 0.4 nM, Abcam) as the microRNA carrier and stabilizer^9. (Ferreira R, Santos T, Amar A, et al. Argonaute-2 promotes miR-18a entry in human brain endothelial cells. J Am Heart Assoc. 2014; 3(3):e000968). No transfection reagent was used with miR-18a or scramble microRNA treatments. Recombinant human TSP-1 (R&D Systems) stock solution was prepared in PBS and further diluted in culture medium to be used at a final concentration of 1000 ng/mL. Cells were treated during 24 h for mRNA and 48 h for protein expression studies. NEO100 (NeOnc Technologies) stock was prepared in DMSO and used immediately or stored at −20° C. […]
Background: An ELISA detects its analyte on a solid surface through an enzyme-linked reagent.

[1] abbreviates: control BEC supernatants, normoxia.

In the case of “hsa-miR-18a-5p (UAGGUGCAUCUAGUGCAGAUAG; chemistry not given here; listed as Homo sapiens) [small non-coding RNA molecule involved in post-transcriptional regulation of gene expression; Dharmacon]”, the “VEGF secretion (ELISA)” value (BEC transfected with ALK2, P>0.9999) is recorded as “No significant changes”. Besides, under setting [1], the “levels of secreted PAI-1” value is “without affecting control BEC” and the “levels of secreted VEGF” value is listed as “without affecting control BEC”. In addition, where the note is “control BEC transfected with siCTL”, the “levels of secreted VEGF” value is given as “without affecting control BEC”.
